Columns and labels:
Assay in all cases: competitive isoTOP-ABPP
Type in all cases: binding
[1] = target: T1, UCHL5 Ubiquitin carboxyl-terminal hydrolase isozyme L5 (Homo sapiens, UniProt Q9Y5K5); conditions: for R value (DMSO/fragment) for probe 1 labeling: Q9Y5K5_K323; for R value (DMSO/fragment) for probe 1 labeling / isoTOP-ABPP reactivity ratio at lysine Q9Y5K5_K323: 50 uM, 231 sol, in vitro
T1 construct: endogenous in cells; host or cells: MDA-MB-231 (soluble fraction of lysate)
T1 sequence (Q9Y5K5 1-329): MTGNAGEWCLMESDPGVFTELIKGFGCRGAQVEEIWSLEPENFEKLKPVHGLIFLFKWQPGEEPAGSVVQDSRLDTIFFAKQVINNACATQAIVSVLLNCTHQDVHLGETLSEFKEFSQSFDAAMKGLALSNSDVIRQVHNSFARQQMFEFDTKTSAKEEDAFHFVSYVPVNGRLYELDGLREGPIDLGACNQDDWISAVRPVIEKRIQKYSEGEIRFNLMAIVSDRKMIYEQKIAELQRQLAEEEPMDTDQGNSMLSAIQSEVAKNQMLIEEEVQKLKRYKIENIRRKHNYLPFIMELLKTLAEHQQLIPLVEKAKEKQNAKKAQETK
Description: (§1) In vitro covalent fragment treatment for isoTOP-ABPP. All compounds were made up as solutions in DMSO (100×) and were used at a final concentration of 50 μM for activated esters and 100 μM for guanidinylating agents. For each profiling sample, 0.5 ml of lysate was treated with 5 μl of the 100× compound stock solution or 5 μl of DMSO. Samples were treated with activated esters for
(§2) STP-alkyne labeling and click chemistry. For concentration-dependent reactivity measurements by isoTOP-ABPP, 0.5 ml proteome aliquots were treated at ambient temperature with 1 mM STP-alkyne 1 (5 μl of 100 mM stock in DMSO) and 0.1 mM STP alkyne 1 (5 μl of 10 mM stock in DMSO), respectively. For competitive isoTOP-ABPP, after in vitro fragment treatment (detailed above), the samples were labeled for 1 h at ambient temperature with 0.1 mM STP-alkyne 1 (5 μl of 10 mM stock in DMSO). Samples were conjugated by copper-mediated azide-alkyne cycloaddition (CuAAC) to either the light (1 mM STP-alkyne or fragment treated) or heavy (0.1 mM STP-alkyne or DMSO treated) TEV tags (10 μl of 5 mM stocks in DMSO, final concentration=100 μM) using tris(2-carboxyethyl)phosphine hydrochloride
(§3) R value calculation and processing. The ratios of light and heavy MS1 peaks for each unique peptide were quantified with a CIMAGE software using default parameters (3 MS1 acquisitions per peak and signal to noise threshold set to 2.5). For reactivity measurements by isoTOP-ABPP, the R value was calculated from the ratio of MS1 peak areas, comparing the 1 mM STP alkyne sample (light TEV tag) with the 0.1 mM STP alkyne sample (heavy TEV tag). For competitive isoTOP-ABPP, the R value was calculated from the ratio of MS1 peak areas, comparing the DMSO treated sample (heavy TEV tag) with the compound treated sample (light TEV tag). […] Ratios for unique peptide entries are calculated for each experiment; overlapping peptides with the same modified lysine (for example, different charge states, MudPIT chromatographic steps or tryptic termini) are grouped together and the median ratio is reported as the final ratio (R). The peptide ratios reported by CIMAGE were further filtered to ensure the removal or correction of low-quality ratios in each individual data set. The quality filters applied were the following: removal of half tryptic peptides; for ratios with high standard deviations from the median (90% of the median or above) the lowest ratio was taken instead of the median; removal of peptides with R=20 and only a single MS2 event triggered during the elution of the parent ion; manual annotation of all the peptides with ratios of 20, removing any peptides with low quality elution profiles that remained after the previous curation steps (only done for competitive isoTOP-ABPP).
(§4) Cross-data processing for fragment screening. For compound treated samples, biological replicates of the same condition were averaged, if the standard deviation was below 60% of the mean; otherwise, for lysines with at least one R value <4 for a particular compound, the lowest value of the ratio set was taken. For lysines, where all R values for a particular compound were ≥4, the average was reported. For peptides containing several possible modified lysines, the lysine with the highest number of quantification events was used for analysis and the remaining, redundant peptides were reported as alternative modification sites. Peptides included in the aggregate dataset (those used for further bioinformatics and statistical analyses) were required to have been quantified in 2 experiments for competitive isoTOP-ABPP. Lysines were categorized as liganded, if they had at least one ratio R≥4 (hit fragments). For liganded lysines with R=20 for all liganding events, lysines were required to have been quantified with R=20 in two separate experiments and were further required to have been quantified with R<20 in one additional experiment.

LMNA Prelamin-A/C = target: T2, LMNA Prelamin-A/C (Homo sapiens, UniProt P02545); conditions: for R value (DMSO/fragment) for probe 1 labeling: P02545_K135; for R value (DMSO/fragment) for probe 1 labeling / isoTOP-ABPP reactivity ratio at lysine P02545_K135: 50 uM, 231 sol, in vitro
T2 construct: isoTOP-ABPP experiments performed in cell lysates (in vitro); endogenous in cells; host or cells: MDA-MB-231 soluble lysate
T2 sequence (P02545 1-664): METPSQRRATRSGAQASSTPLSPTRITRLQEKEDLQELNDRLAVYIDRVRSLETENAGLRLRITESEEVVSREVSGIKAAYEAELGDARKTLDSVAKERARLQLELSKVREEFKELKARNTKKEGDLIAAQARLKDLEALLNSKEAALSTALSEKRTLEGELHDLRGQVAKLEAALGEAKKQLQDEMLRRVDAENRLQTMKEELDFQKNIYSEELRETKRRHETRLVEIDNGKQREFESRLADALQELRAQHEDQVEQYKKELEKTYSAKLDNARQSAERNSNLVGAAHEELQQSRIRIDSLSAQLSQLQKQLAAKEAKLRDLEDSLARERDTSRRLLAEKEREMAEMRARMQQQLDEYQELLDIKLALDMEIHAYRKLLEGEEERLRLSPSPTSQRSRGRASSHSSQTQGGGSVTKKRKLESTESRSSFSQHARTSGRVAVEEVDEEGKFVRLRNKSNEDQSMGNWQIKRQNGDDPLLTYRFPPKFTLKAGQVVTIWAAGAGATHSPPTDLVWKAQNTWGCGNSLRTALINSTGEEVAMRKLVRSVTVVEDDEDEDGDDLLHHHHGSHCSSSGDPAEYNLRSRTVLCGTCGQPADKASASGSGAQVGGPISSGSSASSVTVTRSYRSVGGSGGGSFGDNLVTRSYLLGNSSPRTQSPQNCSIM
Description: as §1, §2, §3, §4

[2] = target: T3, NAA25 N-alpha-acetyltransferase 25, NatB auxiliary subunit (Homo sapiens, UniProt Q14CX7); conditions: for R value (DMSO/fragment) for probe 1 labeling: Q14CX7_K575; for R value (DMSO/fragment) for probe 1 labeling / isoTOP-ABPP reactivity ratio at lysine Q14CX7_K575: 50 uM, 231 sol, in vitro
T3 construct: isoTOP-ABPP experiments performed in cell lysates (in vitro); endogenous in cells; host or cells: soluble proteome of human cancer cell lines (MDA-MB-231; Ramos and Jurkat also prepared)
Description: as §1, §2, §3, §4

[3] = target: T4, ERAP1 Endoplasmic reticulum aminopeptidase 1 (Homo sapiens, UniProt Q9NZ08); conditions: for R value (DMSO/fragment) for probe 1 labeling: Q9NZ08_K685; for R value (DMSO/fragment) for probe 1 labeling / isoTOP-ABPP reactivity ratio at lysine Q9NZ08_K685: 50 uM, 231 sol, in vitro
T4 construct: endogenous in cells; host or cells: MDA-MB-231 lysate
Description: as §1, §2, §3, §4

T3 sequence (Q14CX7 whole entry, the tested form may be a part): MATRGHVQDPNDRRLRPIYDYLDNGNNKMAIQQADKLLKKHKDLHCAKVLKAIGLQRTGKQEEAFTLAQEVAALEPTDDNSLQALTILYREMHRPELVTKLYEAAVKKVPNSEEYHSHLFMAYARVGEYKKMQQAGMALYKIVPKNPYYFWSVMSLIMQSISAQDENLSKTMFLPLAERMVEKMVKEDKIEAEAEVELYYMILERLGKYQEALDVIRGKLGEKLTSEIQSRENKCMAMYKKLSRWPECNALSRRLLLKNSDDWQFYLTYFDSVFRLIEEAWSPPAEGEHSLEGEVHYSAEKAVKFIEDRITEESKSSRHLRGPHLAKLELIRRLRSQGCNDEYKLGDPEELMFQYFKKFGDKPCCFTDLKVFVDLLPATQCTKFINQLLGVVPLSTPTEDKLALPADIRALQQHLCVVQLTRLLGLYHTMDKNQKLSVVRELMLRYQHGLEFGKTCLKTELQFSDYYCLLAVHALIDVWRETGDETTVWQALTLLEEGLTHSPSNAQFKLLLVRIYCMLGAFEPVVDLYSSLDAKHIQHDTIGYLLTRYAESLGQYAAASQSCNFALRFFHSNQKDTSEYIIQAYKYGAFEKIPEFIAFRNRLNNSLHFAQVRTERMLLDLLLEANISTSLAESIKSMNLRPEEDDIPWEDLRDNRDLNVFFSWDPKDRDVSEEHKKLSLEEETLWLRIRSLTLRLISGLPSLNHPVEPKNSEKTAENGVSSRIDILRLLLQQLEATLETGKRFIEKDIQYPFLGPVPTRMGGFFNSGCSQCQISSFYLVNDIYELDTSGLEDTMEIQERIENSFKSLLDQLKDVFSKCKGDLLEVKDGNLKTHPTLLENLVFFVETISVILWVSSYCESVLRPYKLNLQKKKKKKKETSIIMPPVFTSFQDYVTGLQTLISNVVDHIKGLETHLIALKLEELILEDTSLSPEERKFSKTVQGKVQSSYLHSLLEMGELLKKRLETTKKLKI
T4 sequence (Q9NZ08 whole entry, the tested form may be a part): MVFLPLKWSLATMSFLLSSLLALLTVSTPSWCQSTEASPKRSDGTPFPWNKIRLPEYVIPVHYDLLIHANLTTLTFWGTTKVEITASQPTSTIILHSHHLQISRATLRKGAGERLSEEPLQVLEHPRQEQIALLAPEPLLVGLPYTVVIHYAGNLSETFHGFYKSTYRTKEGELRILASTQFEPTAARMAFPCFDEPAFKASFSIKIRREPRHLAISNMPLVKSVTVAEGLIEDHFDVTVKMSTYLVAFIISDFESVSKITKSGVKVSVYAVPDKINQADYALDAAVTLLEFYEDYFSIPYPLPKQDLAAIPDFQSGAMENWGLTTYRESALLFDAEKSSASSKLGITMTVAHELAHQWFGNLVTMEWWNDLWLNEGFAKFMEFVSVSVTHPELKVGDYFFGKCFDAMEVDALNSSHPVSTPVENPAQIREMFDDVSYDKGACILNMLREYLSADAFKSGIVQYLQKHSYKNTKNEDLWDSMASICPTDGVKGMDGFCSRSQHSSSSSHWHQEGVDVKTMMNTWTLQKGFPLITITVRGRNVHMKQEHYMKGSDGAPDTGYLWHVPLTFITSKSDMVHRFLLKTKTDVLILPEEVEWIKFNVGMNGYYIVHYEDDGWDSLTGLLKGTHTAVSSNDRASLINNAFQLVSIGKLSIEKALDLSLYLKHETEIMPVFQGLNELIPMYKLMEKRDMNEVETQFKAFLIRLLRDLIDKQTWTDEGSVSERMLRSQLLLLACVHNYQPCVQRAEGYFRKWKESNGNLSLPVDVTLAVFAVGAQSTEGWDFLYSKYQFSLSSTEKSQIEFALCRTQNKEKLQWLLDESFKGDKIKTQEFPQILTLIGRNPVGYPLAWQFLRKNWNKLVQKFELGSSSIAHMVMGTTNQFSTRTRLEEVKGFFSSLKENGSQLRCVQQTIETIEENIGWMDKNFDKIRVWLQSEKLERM

| SMILES | isoTOP-ABPP reactivity ratio at lysine Q9Y5K5_K323 [1] | isoTOP-ABPP reactivity ratio at lysine P02545_K135 (LMNA Prelamin-A/C) | isoTOP-ABPP reactivity ratio at lysine Q14CX7_K575 [2] | isoTOP-ABPP reactivity ratio at lysine Q9NZ08_K685 [3] | also measured |
| --- | --- | --- | --- | --- | --- |
| Cn1cc(CC(=O)Oc2c(F)c(F)c(F)c(F)c2F)c2ccccc21 [fragment 22, Pentafluorophenyl 2-(1-methyl-1H-indol-3-yl)acetate] | – | – | – | – | R value (DMSO/fragment) for probe 1 labeling [1]: 0.8; R value (DMSO/fragment) for probe 1 labeling (LMNA Prelamin-A/C): 1.0; R value (DMSO/fragment) for probe 1 labeling [2]: 2.2; R value (DMSO/fragment) for probe 1 labeling [3]: 2.2 |
| NC(=O)c1cc(C(F)(F)F)cc(C(F)(F)F)c1 [fragment 51, reference compound] | – | – | – | – | isoTOP-ABPP ratio, lysine Q9Y5K5_K323 ([1]; 50 uM_231_sol_in vitro): 1.0; isoTOP-ABPP ratio, lysine P02545_K135 (LMNA Prelamin-A/C; 50 uM_231_sol_in vitro): 1.0; isoTOP-ABPP ratio, lysine Q14CX7_K575 ([2]; 50 uM_231_sol_in vitro): 1.0; isoTOP-ABPP ratio, lysine Q9NZ08_K685 ([3]; 50 uM_231_sol_in vitro): 0.9 |
| O=C(CCc1cn(-c2ccccc2)nc1-c1ccccc1)Oc1c(F)c(F)c(F)c(F)c1F [fragment 19, Pentafluorophenyl 3-(1,3-diphenyl-1H-pyrazol-4-yl)propanoate] | – | – | – | – | R value (DMSO/fragment) for probe 1 labeling [1]: 1.1; R value (DMSO/fragment) for probe 1 labeling (LMNA Prelamin-A/C): 1.1; R value (DMSO/fragment) for probe 1 labeling [2]: 1.0; R value (DMSO/fragment) for probe 1 labeling [3]: 1.1 |
| COc1cc(CCC(=O)Oc2ccc([N+](=O)[O-])cc2[N+](=O)[O-])cc(OC)c1OC [fragment 33, 2,4-Dinitrophenyl 3-(3,4,5-trimethoxyphenyl)propanoate] | 0.8 | 0.7 | 1.1 | 1.0 | – |
| O=C(Oc1ccc([N+](=O)[O-])cc1[N+](=O)[O-])C(c1ccccc1)c1ccccc1 [fragment 30, 2,4-Dinitrophenyl 2,2-diphenylacetate] | 1.1 | 20.0 | 4.7 | 1.2 | – |
| O=C(Oc1ccc([N+](=O)[O-])cc1[N+](=O)[O-])c1cc(C(F)(F)F)cc(C(F)(F)F)c1 [fragment 31, 2,4-Dinitrophenyl 3,5-bis(trifluoromethyl)benzoate] | 1.0 | 1.3 | 1.2 | 1.6 | – |
| O=C(CCc1cn(-c2ccccc2)nc1-c1ccccc1)Oc1ccc([N+](=O)[O-])cc1[N+](=O)[O-] [fragment 29, 2,4-Dinitrophenyl 3-(1,3-diphenyl-1H-pyrazol-4-yl)propanoate] | 1.1 | 1.0 | 1.1 | 1.0 | – |

Reference: patent US20210255193A1, “LYSINE REACTIVE PROBES AND USES THEREOF” (The Scripps Research Institute, priority 2017, published 2021)
